# Data from patent publication US8921319B2, “Serine protease inhibitors” (The Medicines Company (Leipzig) GmbH, priority 2010, dated 2014).
# Read-outs that look alike come from different tables or passages of the source.
# What was measured:
# thrombin = thrombin (Bos taurus (Bovine), UniProt P00735); experiment: Enzyme assay, inhibition constant for thrombin (chromogenic substrate, Dixon method); assay type: biochemical, Rind; conditions: substrate CH3SO2-D-Cha-Gly-Arg-pNA, mean of at least two measurements
# Method: (§1) Reactions were started by addition of 50 μl of enzyme solution.
# (§2) The Ki values are the mean of at least two measurements. Enzymes and substrates used are set out in Table 1 below: […]
# Factor Xa (human) = Factor Xa (human) (Homo sapiens (Human), UniProt P00742); experiment: Enzyme assay, inhibition constant for factor Xa (chromogenic substrate, Dixon method); assay type: biochemical; conditions: read-out: Ki FXa
# Chain of Factor Xa (human) (P00742 235-488): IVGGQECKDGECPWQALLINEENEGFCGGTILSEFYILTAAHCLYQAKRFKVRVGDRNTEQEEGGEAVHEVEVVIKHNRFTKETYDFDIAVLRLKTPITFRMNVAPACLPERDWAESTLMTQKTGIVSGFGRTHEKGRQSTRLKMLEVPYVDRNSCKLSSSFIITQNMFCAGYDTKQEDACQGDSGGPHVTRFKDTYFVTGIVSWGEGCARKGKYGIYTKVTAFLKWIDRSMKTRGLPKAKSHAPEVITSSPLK
# Chain of Factor Xa (human) (P00742 41-179 partner): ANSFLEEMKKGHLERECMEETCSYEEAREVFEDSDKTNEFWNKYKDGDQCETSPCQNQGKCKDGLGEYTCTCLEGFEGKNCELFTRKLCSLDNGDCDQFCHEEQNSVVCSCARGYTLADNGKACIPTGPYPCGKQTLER
# Method: as §1, §2
# plasma kallikrein = plasma kallikrein (Homo sapiens (Human), UniProt P03952); experiment: Enzyme assay, inhibition constant for human plasma kallikrein (chromogenic substrate, Dixon method); assay type: biochemical; conditions: 25° C., Tris HCl buffer pH 8.0, substrate H-D-Pro-Phe-Arg-pNA, mean of at least two measurements; read-out: Ki PK
# Chain of plasma kallikrein (P03952 391-638): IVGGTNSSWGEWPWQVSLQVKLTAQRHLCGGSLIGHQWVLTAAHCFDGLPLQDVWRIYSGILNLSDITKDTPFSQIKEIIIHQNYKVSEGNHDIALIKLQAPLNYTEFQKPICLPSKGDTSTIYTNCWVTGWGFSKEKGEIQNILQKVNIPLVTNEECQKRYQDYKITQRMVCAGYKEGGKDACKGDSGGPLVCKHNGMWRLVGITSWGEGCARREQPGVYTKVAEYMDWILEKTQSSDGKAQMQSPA
# Chain of plasma kallikrein (P03952 20-390 partner): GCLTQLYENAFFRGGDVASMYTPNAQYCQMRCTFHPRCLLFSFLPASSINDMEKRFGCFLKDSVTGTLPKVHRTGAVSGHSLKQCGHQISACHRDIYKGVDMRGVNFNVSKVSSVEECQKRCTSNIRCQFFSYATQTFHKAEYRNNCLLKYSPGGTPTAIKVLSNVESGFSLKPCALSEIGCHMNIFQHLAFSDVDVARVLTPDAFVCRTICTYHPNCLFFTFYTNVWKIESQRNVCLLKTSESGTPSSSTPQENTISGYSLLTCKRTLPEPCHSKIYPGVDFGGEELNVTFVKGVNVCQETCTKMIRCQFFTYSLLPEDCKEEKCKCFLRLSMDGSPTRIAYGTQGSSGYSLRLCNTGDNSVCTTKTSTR
# Method: as §1, §2
# plasmin [1] = target: T1, plasmin (Homo sapiens (Human), UniProt P00747); experiment: Enzyme assay, inhibition constant for human plasmin (chromogenic substrate, Dixon method); assay type: biochemical; conditions: 25° C., Tris HCl buffer pH 8.0, substrate Tos-Gly-Pro-Lys-pNA, mean of at least two measurements; read-out: Ki h Plasmin
# Method: as §1, §2
# Target sequence in this assay (P00747 581-810): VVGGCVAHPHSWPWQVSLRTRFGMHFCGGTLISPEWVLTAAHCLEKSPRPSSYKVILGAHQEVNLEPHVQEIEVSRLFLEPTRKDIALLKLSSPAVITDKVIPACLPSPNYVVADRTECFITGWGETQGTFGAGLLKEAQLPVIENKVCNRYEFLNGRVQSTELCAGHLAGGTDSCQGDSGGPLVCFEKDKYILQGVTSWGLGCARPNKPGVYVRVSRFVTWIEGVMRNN
# Target sequence in this assay (P00747 97-580 partner): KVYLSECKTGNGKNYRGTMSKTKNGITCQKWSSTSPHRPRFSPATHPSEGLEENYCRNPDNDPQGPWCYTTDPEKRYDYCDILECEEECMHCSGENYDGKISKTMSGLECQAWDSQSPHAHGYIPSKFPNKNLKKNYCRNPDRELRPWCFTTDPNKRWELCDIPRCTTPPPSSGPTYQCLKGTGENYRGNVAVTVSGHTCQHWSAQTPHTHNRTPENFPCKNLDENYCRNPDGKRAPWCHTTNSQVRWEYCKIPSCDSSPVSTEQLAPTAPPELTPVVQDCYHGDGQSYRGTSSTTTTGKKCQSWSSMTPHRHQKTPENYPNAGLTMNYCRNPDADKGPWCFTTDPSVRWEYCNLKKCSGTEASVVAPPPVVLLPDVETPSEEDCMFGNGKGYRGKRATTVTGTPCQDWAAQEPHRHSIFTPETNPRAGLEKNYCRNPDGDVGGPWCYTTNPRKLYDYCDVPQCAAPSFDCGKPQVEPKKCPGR
# plasmin [2] = target: T1, plasmin; conditions: background, literature; read-out: Ki / inhibition constant for plasmin; cited from earlier work
# Target sequence in this assay (P00747 581-810, species assumed): as the sequence (P00747 581-810) above
# Target sequence in this assay (P00747 97-580 partner, species assumed): as the sequence (P00747 97-580 partner) above
# trypsin = conditions: background; cited from earlier work
# [3] = cited from earlier work
# [4] = substrate CH3OCO-D-Cha-Gly-Arg-pNA, mean of at least two measurements
Ki (thrombin) [nM],Ki (Factor Xa (human); [4]) [nM],Ki (plasma kallikrein) [nM],Ki (plasmin [1]) [nM],Compound,Ki (Factor Xa (human)) [nM],Ki (plasmin [2]) [nM],Ki (trypsin) [nM],risk of anaphylactic shock ([3]; first administration) [%],risk of anaphylactic shock ([3]; repeated administration within 200 days)
4300,206,2.4,0.77,N=C(N)c1ccc(CNC(=O)[C@@H]2Cc3cn(nn3)Cc3cccc(c3)Cn3cc(nn3)C[C@@H](NS(=O)(=O)Cc3ccccc3)C(=O)N2)cc1 [Inhibitor 1],,,,,
4560,1860,10.1,2.2,N=C(N)c1ccc(CNC(=O)[C@@H]2Cc3cn(nn3)Cc3cccc(n3)Cn3cc(nn3)C[C@@H](NS(=O)(=O)Cc3ccccc3)C(=O)N2)cc1 [Inhibitor 2],,,,,
3000,5700,550,,N=C(N)c1ccc(CNC(=O)[C@@H]2Cc3ccc(cc3)CNC(=O)Cc3cccc(c3)CC(=O)NCc3ccc(cc3)C[C@@H](NS(=O)(=O)Cc3ccccc3)C(=O)N2)cc1 [Inhibitor 3],,,,,
6520,9370,868,,N=C(N)c1ccc(CNC(=O)[C@@H]2Cc3ccc(cc3)CNC(=O)Cc3ccc(cc3)CC(=O)NCc3ccc(cc3)C[C@@H](NS(=O)(=O)Cc3ccccc3)C(=O)N2)cc1 [Inhibitor 4],,,,,
26.8,42.1,17.4,,N=C(N)c1ccc(CNC(=O)[C@@H]2Cc3cccc(c3)CNC(=O)Cc3cccc(c3)CC(=O)NCc3cccc(c3)C[C@@H](NS(=O)(=O)Cc3ccccc3)C(=O)N2)cc1 [Inhibitor 5],,,,,
575,103,8.9,,N=C(N)c1ccc(CNC(=O)[C@@H]2Cc3cccc(c3)CNC(=O)Cc3ccccc3CC(=O)NCc3cccc(c3)C[C@@H](NS(=O)(=O)Cc3ccccc3)C(=O)N2)cc1 [Inhibitor 7],,,,,
9.1,26.3,31.6,,N=C(N)c1ccc(CNC(=O)[C@@H]2Cc3cccc(c3)CNC(=O)CN3CCN(CC3)CC(=O)NCc3cccc(c3)C[C@@H](NS(=O)(=O)Cc3ccccc3)C(=O)N2)cc1 [Inhibitor 8],,,,,
2120,3470,493,,N=C(N)c1ccc(CNC(=O)[C@@H]2Cc3ccc(cc3)CNC(=O)CN3CCN(CC3)CC(=O)NCc3ccc(cc3)C[C@@H](NS(=O)(=O)Cc3ccccc3)C(=O)N2)cc1 [Inhibitor 9],,,,,
510,2010,34.2,1.9,N=C(N)c1ccc(CNC(=O)[C@@H]2Cc3ccc(cc3)OCCCCOc3ccc(cc3)C[C@@H](NS(=O)(=O)Cc3ccccc3)C(=O)N2)cc1 [Inhibitor 11],,,,,
187,376,18,38,N=C(N)c1ccc(CNC(=O)[C@@H]2CCCCNC(=O)c3cccc(c3)C(=O)NCCCC[C@@H](NS(=O)(=O)Cc3ccccc3)C(=O)N2)cc1 [Inhibitor 12],,,,,
2020,3430,25,,N=C(N)c1ccc(CNC(=O)[C@@H]2CCC(=O)NCc3cccc(c3)CNC(=O)CC[C@@H](NS(=O)(=O)Cc3ccccc3)C(=O)N2)cc1 [Inhibitor 13],,,,,
219,600,12,5.4,N=C(N)c1ccc(CNC(=O)[C@@H]2Cc3cn(nn3)Cc3ccc(cc3)Cn3cc(nn3)C[C@@H](NS(=O)(=O)Cc3ccccc3)C(=O)N2)cc1 [Inhibitor 14],,,,,
8400,> 10000,320,0.68,N=C(N)c1ccc(CNC(=O)[C@@H]2Cc3ccc(cc3)NC(=O)CN3CCN(CC3)CC(=O)Nc3ccc(cc3)C[C@@H](NS(=O)(=O)Cc3ccccc3)C(=O)N2)cc1 [Inhibitor 15],,,,,
,,,,N=C(N)c1ccc(CNC(=O)[C@@H]2CCN2C(=O)[C@H](NCC(=O)O)C2CCCCC2)cc1 [melagatran],,700,,,
,,,,aprotinin,,,0.1,< 0.1,4-5%

Compound,Ki (thrombin) [nM],Ki (Factor Xa (human); [4]) [nM],Ki (plasma kallikrein) [nM],Ki (plasmin [1]) [nM],Ki (Factor Xa (human)) [nM],Ki (plasmin [2]) [nM],Ki (trypsin) [nM],risk of anaphylactic shock ([3]; first administration) [%],risk of anaphylactic shock ([3]; repeated administration within 200 days)
N=C(N)c1ccc(CNC(=O)[C@@H]2Cc3cccc(c3)CNC(=O)Cc3ccc(cc3)CC(=O)NCc3cccc(c3)C[C@@H](NS(=O)(=O)Cc3ccccc3)C(=O)N2)cc1 [Inhibitor 6],45.4,,136,,152,,,,
